{"source": "patent US8258215B2", "about": "“Mixed alkyl-alkylaryl-phenyl phosphite polymer additive” (Dover Chemical Corporation, priority 2010, dated 2012)", "key": {"[1]": {"test_system": "estrogenic activity", "assay": "Estrogenic activity by in-vivo testing"}, "[2]": {"conditions": "LLDPE; for High load Melt Flow Stability, 1st pass / High load Melt Flow Stability, 3rd pass / High load Melt Flow Stability, 5th pass: 190° C. (21.6 Kg), 900 ppm phosphite + 500 ppm Dovernox 76; for maintaining melt flow stability, in words: compared with TNPP (Table III)"}, "[3]": {"conditions": "LLDPE; 900 ppm phosphite + 500 ppm Dovernox 76"}, "[4]": {"conditions": "PP; 230° C. (21.6 Kg); phosphite 900 ppm"}, "[5]": {"conditions": "PP; phosphite 900 ppm"}, "[6]": {"conditions": "HDPE; 190° C. (21.6 Kg); phosphite 900 ppm"}, "[7]": {"conditions": "HDPE; 230° C.; phosphite 900 ppm"}}, "note": "Like-named read-outs stand apart in the source and are kept apart here."}
{"molecule": "CC(C)(c1ccccc1)c1ccc(O)cc1", "note": "[para-cumylphenol]", "values": [{"measurement": "estrogenic activity compared with nonylphenol", "setting": "[1]", "result": "does not show comparable estrogenic activity to nonylphenol"}]}
{"molecule": "Mixed C10 alkyl, p-cumylphenyl phosphite [Example 3]", "values": [{"measurement": "High load Melt Flow Stability, 1st pass", "setting": "[2]", "result": 17.1}, {"measurement": "High load Melt Flow Stability, 3rd pass", "setting": "[2]", "result": 13.4}, {"measurement": "High load Melt Flow Stability, 5th pass", "setting": "[2]", "result": 12.2}, {"measurement": "YI (Yellowness Index) Color Stability, 1st pass", "setting": "[3]", "result": "−4.2"}, {"measurement": "YI (Yellowness Index) Color Stability, 3rd pass", "setting": "[3]", "result": "−2.9"}, {"measurement": "YI (Yellowness Index) Color Stability, 5th pass", "setting": "[3]", "result": "−1.1"}]}
{"molecule": "Mixed C12-14 Alkyl, 2,4-dicumylphenyl Phosphite [Example 10]", "values": [{"measurement": "High load Melt Flow Stability, 1st pass", "setting": "[2]", "result": 18.3}, {"measurement": "High load Melt Flow Stability, 3rd pass", "setting": "[2]", "result": 15.5}, {"measurement": "High load Melt Flow Stability, 5th pass", "setting": "[2]", "result": 13.5}, {"measurement": "YI (Yellowness Index) Color Stability, 1st pass", "setting": "[3]", "result": "−6.1"}, {"measurement": "YI (Yellowness Index) Color Stability, 3rd pass", "setting": "[3]", "result": "−3.8"}, {"measurement": "YI (Yellowness Index) Color Stability, 5th pass", "setting": "[3]", "result": "−2.4"}]}
{"molecule": "Mixed C12-14 alkyl, p-cumylphenyl phosphite [Example 2]", "values": [{"measurement": "High load Melt Flow Stability, 1st pass", "setting": "[2]", "result": 17.7}, {"measurement": "High load Melt Flow Stability, 3rd pass", "setting": "[2]", "result": 15.7}, {"measurement": "High load Melt Flow Stability, 5th pass", "setting": "[2]", "result": 14.0}, {"measurement": "maintaining melt flow stability, in words", "setting": "[2]", "result": "performed exceptionally well"}, {"measurement": "YI (Yellowness Index) Color Stability, 1st pass", "setting": "[3]", "result": "−5.4"}, {"measurement": "YI (Yellowness Index) Color Stability, 3rd pass", "setting": "[3]", "result": "−3.5"}, {"measurement": "YI (Yellowness Index) Color Stability, 5th pass", "setting": "[3]", "result": "−1.5"}, {"measurement": "High load Melt Flow Stability, 1st pass", "setting": "[4]", "result": 24.2}, {"measurement": "High load Melt Flow Stability, 3rd pass", "setting": "[4]", "result": 33.7}, {"measurement": "High load Melt Flow Stability, 5th pass", "setting": "[4]", "result": 37.9}, {"measurement": "Color Stability (YI), 1st pass", "setting": "[5]", "result": 7.2}, {"measurement": "Color Stability (YI), 3rd pass", "setting": "[5]", "result": 10.4}, {"measurement": "High load Melt Flow Stability, 1st pass", "setting": "[6]", "result": 22.7}, {"measurement": "High load Melt Flow Stability, 3rd pass", "setting": "[6]", "result": 22.2}, {"measurement": "High load Melt Flow Stability, 5th pass", "setting": "[6]", "result": 17.2}, {"measurement": "Color Stability (YI), 1st pass", "setting": "[7]", "result": 1.2}, {"measurement": "Color Stability (YI), 3rd pass", "setting": "[7]", "result": 5.9}, {"measurement": "Color Stability (YI), 5th pass", "setting": "[7]", "result": 10.2}]}
{"molecule": "Mixed C12-18 alkyl, p-cumylphenyl phosphite [Example 7]", "values": [{"measurement": "High load Melt Flow Stability, 1st pass", "setting": "[2]", "result": 18.5}, {"measurement": "High load Melt Flow Stability, 3rd pass", "setting": "[2]", "result": 16.1}, {"measurement": "High load Melt Flow Stability, 5th pass", "setting": "[2]", "result": 14.6}, {"measurement": "maintaining melt flow stability, in words", "setting": "[2]", "result": "performed exceptionally well"}, {"measurement": "YI (Yellowness Index) Color Stability, 1st pass", "setting": "[3]", "result": "−5.5"}, {"measurement": "YI (Yellowness Index) Color Stability, 3rd pass", "setting": "[3]", "result": "−3.6"}, {"measurement": "YI (Yellowness Index) Color Stability, 5th pass", "setting": "[3]", "result": "−1.5"}, {"measurement": "High load Melt Flow Stability, 1st pass", "setting": "[4]", "result": 24.2}, {"measurement": "High load Melt Flow Stability, 3rd pass", "setting": "[4]", "result": 34.2}, {"measurement": "High load Melt Flow Stability, 5th pass", "setting": "[4]", "result": 44.4}, {"measurement": "Color Stability (YI), 1st pass", "setting": "[5]", "result": 7.0}, {"measurement": "Color Stability (YI), 3rd pass", "setting": "[5]", "result": 10.0}, {"measurement": "High load Melt Flow Stability, 1st pass", "setting": "[6]", "result": 23.6}, {"measurement": "High load Melt Flow Stability, 3rd pass", "setting": "[6]", "result": 22.2}, {"measurement": "High load Melt Flow Stability, 5th pass", "setting": "[6]", "result": 17.1}, {"measurement": "Color Stability (YI), 1st pass", "setting": "[7]", "result": "−0.6"}, {"measurement": "Color Stability (YI), 3rd pass", "setting": "[7]", "result": 1.4}, {"measurement": "Color Stability (YI), 5th pass", "setting": "[7]", "result": 6.4}]}
{"molecule": "Mixed C16-18 alkyl, p-cumylphenyl phosphite [Example 6]", "values": [{"measurement": "High load Melt Flow Stability, 1st pass", "setting": "[2]", "result": 18.7}, {"measurement": "High load Melt Flow Stability, 3rd pass", "setting": "[2]", "result": 15.7}, {"measurement": "High load Melt Flow Stability, 5th pass", "setting": "[2]", "result": 13.6}, {"measurement": "YI (Yellowness Index) Color Stability, 1st pass", "setting": "[3]", "result": "−3.8"}, {"measurement": "YI (Yellowness Index) Color Stability, 3rd pass", "setting": "[3]", "result": "−1.1"}, {"measurement": "YI (Yellowness Index) Color Stability, 5th pass", "setting": "[3]", "result": 1.5}]}
{"molecule": "Mixed C18 alkenyl, p-cumylphenyl phosphite [Example 4]", "values": [{"measurement": "High load Melt Flow Stability, 1st pass", "setting": "[2]", "result": 18.1}, {"measurement": "High load Melt Flow Stability, 3rd pass", "setting": "[2]", "result": 14.8}, {"measurement": "High load Melt Flow Stability, 5th pass", "setting": "[2]", "result": 13.4}, {"measurement": "YI (Yellowness Index) Color Stability, 1st pass", "setting": "[3]", "result": "−5.8"}, {"measurement": "YI (Yellowness Index) Color Stability, 3rd pass", "setting": "[3]", "result": "−3.8"}, {"measurement": "YI (Yellowness Index) Color Stability, 5th pass", "setting": "[3]", "result": "−1.4"}]}
{"molecule": "tris(nonylphenyl)phosphite [TNPP, reference compound]", "values": [{"measurement": "High load Melt Flow Stability, 1st pass", "setting": "[2]", "result": 18.1}, {"measurement": "High load Melt Flow Stability, 3rd pass", "setting": "[2]", "result": 16.1}, {"measurement": "High load Melt Flow Stability, 5th pass", "setting": "[2]", "result": 14.4}, {"measurement": "YI (Yellowness Index) Color Stability, 1st pass", "setting": "[3]", "result": "−3.7"}, {"measurement": "YI (Yellowness Index) Color Stability, 3rd pass", "setting": "[3]", "result": "−1.7"}, {"measurement": "YI (Yellowness Index) Color Stability, 5th pass", "setting": "[3]", "result": 0.4}, {"measurement": "High load Melt Flow Stability, 1st pass", "setting": "[4]", "result": 21.4}, {"measurement": "High load Melt Flow Stability, 3rd pass", "setting": "[4]", "result": 30.0}, {"measurement": "High load Melt Flow Stability, 5th pass", "setting": "[4]", "result": 37.0}, {"measurement": "Color Stability (YI), 1st pass", "setting": "[5]", "result": 14.8}, {"measurement": "Color Stability (YI), 3rd pass", "setting": "[5]", "result": 15.1}, {"measurement": "High load Melt Flow Stability, 1st pass", "setting": "[6]", "result": 22.7}, {"measurement": "High load Melt Flow Stability, 3rd pass", "setting": "[6]", "result": 22.5}, {"measurement": "High load Melt Flow Stability, 5th pass", "setting": "[6]", "result": 18.5}, {"measurement": "Color Stability (YI), 1st pass", "setting": "[7]", "result": "−0.4"}, {"measurement": "Color Stability (YI), 3rd pass", "setting": "[7]", "result": 4.9}, {"measurement": "Color Stability (YI), 5th pass", "setting": "[7]", "result": 9.3}]}
